This is an account of results in patent publication US6696476B2, “Pyranoindazoles and their use for the treatment of glaucoma” (Alcon, Inc., priority 2001, dated 2004).

Structures are written as SMILES. Structures can show the parent of a compound that is named as a salt. Where two headings read alike, the source gives them in different places.

The test system of one series is intraocular pressure. Description: IOP Response in Conscious Cynomolgus Monkeys. It counts as in vivo.
Series [1] addresses T1, 5-HT2A Receptor (Rattus norvegicus, UniProt P14842). Description: 5-HT2 Functional Assay: [Ca2+]i Mobilization (FLIPR, A7r5 cells). Also on record: endogenous in cells; host or cells: A7r5 rat vascular smooth muscle cells. The series is classed as cell-based. Particulars: for EC50: [Ca2+]i mobilization, A7r5 rat vascular smooth muscle cells; for Emax: read-out: Efficacy (Emax, %). The procedure: The receptor-mediated mobilization on intracellular calcium ([Ca^2+]i) was studied using the Fluorescence Imaging Plate Reader (FLIPR) instrument. Rat vascular smooth muscle cells, A7r5, were grown in a normal media of DMEM/10% FBS and 10 μg/mL gentamycin. Confluent cell monolayers were trypsinized, pelleted, and re-suspended in normal media. Cells were seeded in a 50 μL volume at a density of 20,000 cells/well in a black wall, 96-well tissue culture plate and grown for 2 days.
On the day of the experiment, one vial of FLIPR Calcium Assay Kit dye was re-suspended in 50 mL of a FLIPR buffer consisting of Hank's Balanced Salt Solution (HBSS), 20 mM HEPES, and 2.5 mM probenecid, pH 7.4. Cells were loaded with the calcium-sensitive dye by addition of an equal volume (50 μL) to each well of the 96-well plate and incubated with dye for 1 h at 23° C.
Compounds were diluted 1:50 in 20% DMSO/20% Ethanol. For “hit” screening, compounds were further diluted 1:10 in FLIPR buffer and tested at a final concentration of 10 μM.
The compound plate and cell plate were placed in the FLIPR instrument. At the beginning of an experimental run, a signal test was performed to check the basal fluorescence signal from the dye-loaded cells and the uniformity of the signal across the plate. The basal fluorescence was adjusted between 8000-12000 counts by modifying the exposure time, the camera F-stop, or the laser power. Instrument settings for a typical assay were the following: laser power 0.3-0.6 W, camera F-stop F/2, and exposure time 0.4 sec. An aliquot (25 μL) of the test compound was added to the existing 100 μL dye-loaded cells at a dispensing speed of 50 μL/sec. Fluorescence data were collected in real-time at 1.0 sec intervals for the first 60 secs and at 6.0 sec intervals for an additional 120 secs.

For series [2], the target named is T1, 5-HT2A Receptor. Briefly: 5-HT2 Receptor Binding Assay ([125I]DOI competition). More on the design: species or system rat or human. Particulars: 5-HT2A receptor binding; [125I]DOI displacement, cerebral cortex homogenates. The procedure:
Aliquots of post mortem rat or human cerebral cortex homogenates (400 μL) dispersed in 50 mM Tris HCl buffer (pH 7.4) are incubated with [^125I]DOI (80 pM final) in the absence or presence of methiothepin (10 μM final) to define total and non-specific binding, respectively, in a total volume of 0.5 mL. The assay mixture is incubated for 1 hour at 23° C. in polypropylene tubes and the assays terminated by rapid vacuum filtration over Whatman GF/B glass fiber filters previously soaked in 0.3% polyethyleneimine using ice-cold buffer. Test compounds (at different concentrations) are substituted for methiothepin. Filter-bound radioactivity is determined by scintillation spectrometry on a beta counter. The data are analyzed using a non-linear, iterative curve-fitting computer program [Trends Pharmacol. Sci., 16, 413 (1995)] to determine the compound affinity parameter. The concentration of the compound needed to inhibit the [^125I]DOI binding by 50% of the maximum is termed the IC50 or Ki value.

The subject of series [3] is IOP. Particulars: monkey; attributed to α1A receptor activity; cited from earlier work.
For series [4], the system named is IOP. The settings on record: rabbits; cited from earlier work.
[5] abbreviates: percentage of a maximum 5-HT-induced response, A7r5 cells.
Where [6] appears, read: 3 hours after dose, dose 300 μg.
Setting [7] is: 6 hours after dose, dose 300 μg.

T1 sequence (P14842 whole entry): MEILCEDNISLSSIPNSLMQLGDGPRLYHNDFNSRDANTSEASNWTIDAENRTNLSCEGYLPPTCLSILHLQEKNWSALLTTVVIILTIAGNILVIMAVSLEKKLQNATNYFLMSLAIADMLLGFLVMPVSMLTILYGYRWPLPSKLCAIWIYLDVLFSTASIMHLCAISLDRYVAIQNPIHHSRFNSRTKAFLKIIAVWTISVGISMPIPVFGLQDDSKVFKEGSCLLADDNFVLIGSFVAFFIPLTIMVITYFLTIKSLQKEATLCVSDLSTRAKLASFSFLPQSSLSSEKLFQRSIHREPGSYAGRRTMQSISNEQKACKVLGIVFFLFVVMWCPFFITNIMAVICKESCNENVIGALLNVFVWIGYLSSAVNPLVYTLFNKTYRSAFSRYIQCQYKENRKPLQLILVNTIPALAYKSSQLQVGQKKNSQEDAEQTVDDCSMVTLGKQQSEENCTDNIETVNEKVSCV

Regarding `COc1cc(C[C@@H](C)N)c(OC)cc1I` [(R)-DOI, reference compound], the “Percent IOP Reduction ± SEM” value was 11.0 ± 4.98% in the series with intraocular pressure (1 hour after dose, dose 100 μg); 25.3 ± 2.97% in the series with intraocular pressure (3 hours after dose, dose 100 μg); 34.4 ± 4.98% with intraocular pressure (6 hours after dose, dose 100 μg).

`C[C@H](N)Cn1ncc2ccc3c(c21)C[C@@H](O)CO3` [Example 4, (R)-1-((S)-2-Aminopropyl)-1,7,8,9-tetrahydro-pyrano[2,3-g]indazol-8-ol] registered a melting point of 126 to 128 °C. Also, a half-maximal effect on 5-HT2A Receptor [1] (EC50) was put at 65.3 nM. Further, the maximal effect (Emax) at 5-HT2A Receptor [1] (setting [5]) stood at 92%. At 5-HT2A Receptor [2], this compound had an IC50 of 2.25 nM. The “Percent IOP Reduction ± SEM” value with intraocular pressure (1 hour after dose, dose 300 μg) turned out to be 7.68 ± 2.91%. For the same compound, the “Percent IOP Reduction ± SEM” value in the series with intraocular pressure (setting [6]) was 25.8 ± 3.53%. For the same compound, the “Percent IOP Reduction ± SEM” value in the series with intraocular pressure (setting [7]) is given as 30.2 ± 4.48%.

As to `C[C@H](N)Cn1ncc2ccc3c(c21)C[C@@H](N)CO3.Cl.Cl.Cl` [Example 6, (R)-1-((S)-2-Amino-propyl)-1,7,8,9-tetrahydro-pyrano[2,3-g]indazol-8-ylamine Trihydrochloride], the melting point was more than 300 °C. This compound registered a half-maximal effective concentration (EC50) at 5-HT2A Receptor [1] of 175 nM. In addition, on 5-HT2A Receptor [1] (setting [5]), the Emax was determined as 87%. At 5-HT2A Receptor [2], the IC50 amounted to 6.56 nM.

For `C[C@H](N)Cn1ncc2ccc3c(c21)C[C@H](O)CO3` [Example 5, (S)-1-((S)-2-Aminopropyl)-1,7,8,9-tetrahydro-pyrano[2,3-g]indazol-8-ol], at 5-HT2A Receptor [1], a half-maximal effect (EC50) was put at 226 nM. The Emax on 5-HT2A Receptor [1] (setting [5]) amounted to 70%. On 5-HT2A Receptor [2], this compound displayed an IC50 of 3.44 nM. In addition, the “Percent IOP Reduction ± SEM” value in the series with intraocular pressure (1 hour after dose, dose 300 μg) turned out to be 7.9 ± 4.06%; in the series with intraocular pressure (setting [6]), 17.3 ± 3.87%; in the series on intraocular pressure (setting [7]), 25.1 ± 4.76%.

Take `C[C@@H](N)Cn1ncc2ccc3c(c21)CC(O)CO3.Cl` (stereo partly drawn): the melting point lay in the range of 82 to 86 °C.

As for `C[C@H](N)Cn1ncc2ccc3c(c21)CC(O)CO3` (stereo partly drawn) [Example 3, 1-((S)-2-Aminopropyl)-1,7,8,9-tetrahydro-pyrano[2,3-g]indazol-8-ol], the melting point fell in the range of 46 to 51 °C. At 5-HT2A Receptor [1], this compound showed an EC50 of 145 nM. Also, at 5-HT2A Receptor [1] (setting [5]), the Emax was 85%. This compound also registered an IC50 at 5-HT2A Receptor [2] of 2.19 nM.

As to `COc1ccccc1N1CCN(CCCNc2c(C)c(=O)n(C)c(=O)n2C)CC1` [5-methylurapidil], the “effect on IOP” value in the series with IOP [3] is listed as “lowers IOP”.

For `C[C@H](N)Cn1ncc2ccc3c(c21)C[C@@H](OCCO)CO3.Cl.Cl` [Example 13, 2-[(R)-1-((S)-2-Aminopropyl)-1,7,8,9-tetrahydro-pyrano[2,3-g]indazol-8-yloxy]-ethanol Dihydrochloride], the melting point was more than 100 °C. Further, the response at 5-HT2A Receptor [1] was half-maximal at 121 nM (EC50). Moreover, the maximum response (Emax) on 5-HT2A Receptor [1] (setting [5]) is 87%. Moreover, the IC50 on 5-HT2A Receptor [2] came out at 3.38 nM. Also, the “Percent IOP Reduction ± SEM” value in the series on intraocular pressure (1 hour after dose, dose 300 μg) is 8.3 ± 2.64%. For the same compound, the “Percent IOP Reduction ± SEM” value with intraocular pressure (setting [6]) came to 21.4 ± 4.18%. Besides, the “Percent IOP Reduction ± SEM” value in the series with intraocular pressure (setting [7]) is on record as 28.4 ± 3.36%.

In the case of `CC(=O)NCCO[C@H]1COc2ccc3cnn(C[C@H](C)N)c3c2C1` [Example 14, N-[2-[(R)-1-((S)-2-Aminopropyl)-1,7,8,9-tetrahydropyrano[2,3-g]indazol-8-yloxy]-ethyl]acetamide], the melting point was 165 to 166 °C. On 5-HT2A Receptor [1], this compound displayed a 50% effective concentration (EC50) of 202 nM. Besides, the Emax at 5-HT2A Receptor [1] (setting [5]) came to 86%. The half-maximal inhibitory concentration (IC50) at 5-HT2A Receptor [2] stood at 5.34 nM.

Turning to `C[C@H](N)Cn1ncc2ccc3c(c21)C[C@@H](OCC(N)=O)CO3` [Example 15, 2-[(R)-1-((S)-2-Aminopropyl)-1,7,8,9-tetrahydro-pyrano[2,3-g]indazol-8-yloxy]-acetamide], a half-maximal effect on 5-HT2A Receptor [1] (EC50) was put at 178 nM. In addition, the Emax at 5-HT2A Receptor [1] (setting [5]) was 95%. On 5-HT2A Receptor [2], the IC50 came to 2.87 nM.

`C[C@H](N)Cc1n[nH]c2ccc3c(c12)CCCO3` [Example 17, (S)-1-Methyl-2-(3,7,8,9-tetrahydro-pyrano[3,2-e]indazol-1-yl)-ethylamine] showed an EC50 on 5-HT2A Receptor [1] of 154 nM. Besides, the maximal effect (Emax) at 5-HT2A Receptor [1] (setting [5]) worked out at 88%. Also, on 5-HT2A Receptor [2], the concentration for half-maximal inhibition (IC50) was 0.79 nM.

In the case of `CCCN(CCC)C1CCc2cccc(O)c2C1` (stereo not drawn) [Example 8-OH-DPAT, 8-hydroxydipropylaminotetralin], the “effect on IOP” value in the series on IOP [4] was “reduces IOP”.

On to `C[C@H](N)Cc1n[nH]c2ccc3c(c12)CCCO3` (as salt: hydrochloride) [Example 17, (S)-1-Methyl-2-(3,7,8,9-tetrahydro-pyrano[3,2-e]indazol-1-yl)-ethylamine], for which the melting point lay in the range of 235 to 240 °C.

Compound `C[C@H](N)Cn1ncc2ccc3c(c21)C(N)C(O)CO3` (stereo partly drawn) yielded a melting point of 84 to 88 °C.

Turning to `NCCc1c[nH]c2ccc(O)cc12` [Example 5-HT, 5-Hyroxytryptamine, reference compound], at 5-HT2A Receptor [1] (setting [5]), the “Efficacy (Emax, %)” value is 101%.

Compound `C[C@H](N)Cn1ncc2ccc3c(c21)C[C@@H](OCC(=O)OC(C)(C)C)CO3` [Example 16, [(R)-1-((S)-2-Amino-propyl)-1,7,8,9-tetrahydro-pyrano[2,3-g]indazol-8-yloxy]acetic Acid Tert-butyl Ester Dihydrochloride] showed an EC50 at 5-HT2A Receptor [1] of 424 nM. Besides, on 5-HT2A Receptor [1] (setting [5]), the Emax was determined as 73%. The compound also showed an IC50 on 5-HT2A Receptor [2] of 1.94 nM.

`C[C@H](N)Cn1ncc2ccc3c(c21)CCCO3.Cl.Cl` [Example 8, (S)-2-(8,9-Dihydro-7H-pyrano[2,3-g]indazol-1-yl)-1-methyl-ethylamine Dihydrochloride] displayed a melting point of 95 to 98 °C. The compound also had an EC50 on 5-HT2A Receptor [1] of 90 nM. The Emax on 5-HT2A Receptor [1] (setting [5]) stood at 85%. The 50% inhibitory concentration (IC50) at 5-HT2A Receptor [2] amounted to 0.686 nM.

Compound `COC1c2c(ccc3cnn(C[C@H](C)N)c23)OCC1O` (stereo partly drawn) came in with a melting point of 105 to 108 °C.

As for `C[C@H](N)Cn1ncc2ccc3c(c21)C=CCO3` [Example 9, (S)-1-Methyl-2-(7H-pyrano[2,3-g]indazol-1-yl)-ethylamine], the EC50 on 5-HT2A Receptor [1] is 41.4 nM. The Emax on 5-HT2A Receptor [1] (setting [5]) was determined as 91%. This compound also registered an IC50 on 5-HT2A Receptor [2] of 0.274 nM.

For the compound `CC(N)Cn1ncc2ccc3c(c21)CC(O)CO3` (stereo not drawn), the melting point lay within 124 to 125 °C.

As to `C[C@H](N)Cn1ncc2ccc3c(c21)[C@H](O)[C@H](O)CO3` (relative stereo) [Example 7, (8R*,9S*)-1-((S)-2-Amino-propyl)-1,7,8,9-tetrahydro-pyrano[2,3-g]indazole-8,9-diol], the melting point was 115 to 117 °C. A half-maximal effect at 5-HT2A Receptor [1] (EC50) was put at 194 nM. Moreover, the Emax on 5-HT2A Receptor [1] (setting [5]) amounted to 85%. This compound came in with an IC50 at 5-HT2A Receptor [2] of 3.73 nM.

As usually defined, the melting point is the temperature, or range, at which the solid turns liquid. What is called EC50 is the concentration that produces a half-maximal response. The Emax is the greatest response seen or fitted, relative to the assay's reference. What is called IC50 is the concentration that inhibits the measured activity by half. High values mean weaker potency, low ones greater potency.
